Assay: Dissolving power of UV photoprotective filters in phenoxyalkyl esters
Assay type: physicochemical
Conditions: percent by weight, 22° C.; for Dissolving power for Benzophenone-3: maximum dissolvable amount of UV filter Benzophenone-3 (BP-3) in the substance; for Dissolving power for BMDM: maximum dissolvable amount of UV filter Butyl Methoxydibenzoylmethane (BMDM) in the substance; for Dissolving power for Tinosorb S: maximum dissolvable amount of UV filter Tinosorb S (Bemotrizinol, BEMT) in the substance; for Dissolving power for Uvinul T 150: maximum dissolvable amount of UV filter Uvinul T 150 (Octyl Triazone, EHT) in the substance
Text: To test the dissolving power of crystalline UV photoprotective filters in phenoxyalkyl esters, four representative UV-A and/or UV-B photoprotective filters were selected by way of representation. These were benzophenone-3 (2-hydroxy-4-methoxybenzophenone, BP-3), Butyl Methoxydibenzoylmethane (BMDM), Octyl Triazone (2,4,6-trianilino-p-(carbo-2′-ethylhexyl-1′-oxy)-1,3,5-triazines, EHT) and Bemotrizinol (bis-ethylhexyloxyphenol meth-oxyphenyl triazine, BEMT).
To determine the dissolving power for these […] UV photoprotective filters, in each case a certain amount (50 g) of one of the compounds according to the invention was initially introduced and heated to 22° C. One (1) percent by weight of a UV photoprotective filter was added and the mixture was stirred until this amount had dissolved completely and homogeneously. This operation was repeated until the maximum dissolvable amount of the UV photoprotective filter was exceeded. For complete dissolution in the case of relatively high concentrations, a prolonged stirring time of several hours was often necessary.
If the maximum concentration had been roughly determined in this way, to finely determine the concentration range around this maximum concentration the procedure was repeated using smaller initial weight amounts of the […] photoprotective filter.
The reference used was the compound Tegosoft® TN (C12-15 alkyl benzoate).

Row | Molecule | Dissolving power for Benzophenone-3 [%] | Dissolving power for BMDM [%] | Dissolving power for Tinosorb S [%] | Dissolving power for Uvinul T 150 [%]
1 | CCCCCC(=O)OCCOc1ccccc1 [2-Phenoxyethyl caproate] | 28 | 18 | 11 | 6
2 | CCCCCC(CCC)C(=O)OCCOc1ccccc1 (centres unmarked) [2-Phenoxyethyl 2-propylheptanoate] | 20 | 13 | 9 | 4
3 | CCCCC(CC)C(=O)OC(C)COc1ccccc1 (centres unmarked) [1-Phenoxy-2-propyl 2-ethylhexanoate] | 21 | 15 | 9 | 4
4 | CCCCCCCC(=O)OC(C)COc1ccccc1 (centres unmarked) [1-Phenoxy-2-propyl caprylate, 1-phenoxy-2-propyloctanoic acid ester] | 21 | 14 | 9 | 6
5 | CCCCCCC(CCCC)C(=O)OCCOc1ccccc1 (centres unmarked) [2-Phenoxyethyl 2-butyloctanoate, 2-phenoxyethyl-2-butyloctanoic acid ester] | 19 | 14 | 8 | 5
6 | CC(COc1ccccc1)OC(=O)C1CCCCC1 (centres unmarked) [1-Phenoxy-2-propyl cyclohexanoate, 1-phenoxy-2-propylcyclohexanecarboxylic acid ester] | 27 | 16 | 10 | 6
7 | CCCCC(CC)C(=O)OCCOc1ccccc1 (centres unmarked) [2-Phenoxyethyl 2-ethylhexanoate, 2-phenoxyethyl-2-ethylhexanoic acid ester] | 25 | 17 | 12 | 4

Second part, the molecule after the results:

Row | Dissolving power for Benzophenone-3 [%] | Dissolving power for BMDM [%] | Dissolving power for Tinosorb S [%] | Dissolving power for Uvinul T 150 [%] | Molecule
8 | 30 | 19 | 12 | 6 | O=C(OCCOc1ccccc1)C1CCCCC1 [2-Phenoxyethyl cyclohexanoate, 2-phenoxyethylcyclohexanecarboxylic acid ester]
9 | 25 | 16 | 9 | 4 | CC(C)CCCCCC(=O)OCCOc1ccccc1 [2-Phenoxyethyl isononanoate]
10 | 15 | 13 | 9 | 4 | C12-15 alkyl benzoate [Tegosoft ® TN, reference compound]
11 | 28 | 18 | 11 | 6 | CCCCCCCC(=O)OCCOc1ccccc1 [2-Phenoxyethyl caprylate, 2-phenoxyethyloctanoic acid ester]
